The record followed here is patent US9827316B2, “Cardiovascular disease treatment and prevention” (priority 2013, dated 2017).

Series [1] is described as follows: Nitric oxide gas bubbled through carrier, change in weight. Particulars: NO bubbled 40 hr, 25 ° C. It is filed as physicochemical. The procedure: This example illustrates one technique for preparing a composition in accordance with one embodiment of the invention. An accurate amount of a carrier (HNC 167-62) (see below) was introduced into a system. The carrier weight used in these experiments was approximately 250 g and the vessel size was 500 ml. The vessel was equipped with a mechanical stirrer, gas inlet, and gas outlet and was previously purged with argon for about an hour. The temperature of the carrier was kept at about 25-30° C. NO gas regulated at 5 psi (1 psi is about 6,900 Pa) and was then introduced at a controlled rate of about 1 bubble/s with continuous stirring. […] After 6 hours, the weight of the carrier had increased by 0.15%, by 12 hours by 0.25%, and by 24 hours by 0.56%. These increases in weight were believed to be significant considering the relative small molecular weight of NO versus the carrier. […] The carrier also can solidify upon cooling if the carrier is initially a solid at lower temperature.
Each carrier was taken in a 500 mL three necked flask equipped with a mechanical stirrer, gas inlet and a gas outlet. The system was purged with argon for one hour at room temperature (25° C.). Then nitric oxide gas was bubbled into the system. Then, nitric oxide gas was bubbled through carrier for stipulated amount of time. The changes in weight and color were noted. […]

A short description of series [2]: Laser Doppler capillary blood flow in humans, 10,000 ppm NO in closed chamber (Example 5). Particulars: positive control, 1/10% in alcohol applied to skin. It is filed as in vivo, human. The source says:
The formulation used in these studies contained nitric oxide dispersed in a lipid matrix. […] Nitric oxide is a very rapid acting molecule, and these studies used a system that employed laser Doppler with a covered chamber. The formulation was placed into the chamber and then attached to the skin by an adhesive layer on the covering. This provided a stable measuring device as determined by multiple normal evaluations of the capillary blood flow without treatment of nitric oxide.
A known positive control, methyl nicotinate, was applied to the skin at a concentration of 1/10% in alcohol. […] The vascular dynamics are such that when the blood vessels dilate physical parameters follow Bernoulli's law. This states that as one increases the diameter of a tube containing a liquid to flow will increase but the pressure and the speed of the liquid will decrease. The laser Doppler device accurately measured these parameters.
The test product was labeled as 10,000 ppm NO (nitric oxide). The study participants had 100 mg of the test product applied in a closed Hilltop chamber on the forearm. […]
A Moor Instruments DRT4 Laser Doppler Blood Flow Monitor (Devon, England) was used in these studies. The laser Doppler technique measured blood flow in the microcapillaries of the skin that are close to the skin surface and the blood flow in underlying arterioles and venules that help to regulate skin temperature. […]

Series [3] is described as follows: Laser Doppler circulation in five human subjects (Example 8). It is filed as in vivo. Conditions: positive control formulation, 0.1%. The source says:
This example illustrates delivery of nitric oxide formulations to five human subjects, using procedures and formulations similar to those discussed in Example 5. Each person served as their own control for the testing. A Moor Instruments Laser Doppler was used to determine circulation. […] The formulations used produce positive, almost immediate results when applied to the skin which, in these studies, was manifested by vasodilatation of the cutaneous vascular system.
For each subject, the following creams were applied: a negative control formulation (containing no NO), 0.010 gram of a 10,000 ppm NO formulation, 0.020 gram of a 10,000 ppm NO formulation, and a positive control formulation containing 0.1% methyl nicotinate. The formulations were prepared using procedures similar to those discussed in Example 1.

Take `OCCCO` [1,3-Propanediol, 1,3-propanediol]: the “% Wt. gain” value in series [1] is given as 0.09%.

Consider `COC(=O)c1cccnc1` [methyl nicotinate], for which the “laser Doppler response of skin blood flow” value in series [2] is recorded as “rapid response typical of the vasodilator”. Moreover, the vasodilatation entry in series [3] is listed as “vasodilatation was observed”.
